What all share (conditions): 11-point 3-fold dilution, qPCR readout
Assay [1] addresses T1, FGFR1 (Homo sapiens, UniProt P11362).
T1 construct: made in house; host or cells: E. coli host derived from BL21, infected with T7 phage
Put plainly: Kinase binding assay (Kd), FGFR1. On the procedure:
(§1) Kinase-tagged T7 phage strains were prepared in an E. coli host derived from the BL21 strain. E. coli were grown to log-phase and infected with T7 phage and incubated with shaking at 32° C. until lysis. The lysates were centrifuged and filtered to remove cell debris. Streptavidin-coated magnetic beads were treated with biotinylated small molecule ligands for 30 minutes at room temperature to generate affinity resins for kinase assays. The liganded beads were blocked with excess biotin and washed with blocking buffer SeaBlock (Pierce), 1% BSA, 0.05% Tween 20, 1 mM DTT to remove unbound ligand and to reduce non-specific binding. Binding reactions were assembled by combining kinases, liganded affinity beads, and test compounds in 1× binding buffer (20% SeaBlock, 0.17×PBS, 0.05% Tween 20, 6 mM DTT).
(§2) Test compounds were prepared as 111X stocks in 100% DMSO. Kds were determined using an 11-point 3-fold compound dilution series with three DMSO control points. All compounds for Kd measurements are distributed by acoustic transfer (non-contact dispensing) in 100% DMSO. The compounds were then diluted directly into the assays such that the final concentration of DMSO was 0.9%. All reactions performed in polypropylene 384-well plate. Each was a final volume of 0.02 ml. The assay plates were incubated at room temperature with shaking for 1 hour and the affinity beads were washed with wash buffer (lx PBS, 0.05% Tween 20). The beads were then re-suspended in elution buffer (lx PBS, 0.05% Tween 20, 0.5 μM non-biotinylated affinity ligand) and incubated at room temperature with shaking for 30 minutes. The kinase concentration in the eluates was measured by qPCR.
(§3) Binding constants were calculated with a standard dose-response curve using the Hill equation: […]
(§4) The Hill Slope was set to −1. Curves were fitted using a non-linear least square fit with the Levenberg-Marquardt algorithm.

Assay [2] concerns the target T2, FGFR4 (Homo sapiens, UniProt P22455).
T2 construct: made in house; host or cells: E. coli host derived from BL21, infected with T7 phage
Put plainly: Kinase binding assay (Kd), FGFR4. On the procedure:
as §1, §2, §3, §4

In assay [3] the target is T3, FGFR3 (V555M) (Homo sapiens, UniProt P22607, V555M).
T3 construct: made in house; host or cells: E. coli host derived from BL21, infected with T7 phage
T3 sequence (P22607 23-806 V555M): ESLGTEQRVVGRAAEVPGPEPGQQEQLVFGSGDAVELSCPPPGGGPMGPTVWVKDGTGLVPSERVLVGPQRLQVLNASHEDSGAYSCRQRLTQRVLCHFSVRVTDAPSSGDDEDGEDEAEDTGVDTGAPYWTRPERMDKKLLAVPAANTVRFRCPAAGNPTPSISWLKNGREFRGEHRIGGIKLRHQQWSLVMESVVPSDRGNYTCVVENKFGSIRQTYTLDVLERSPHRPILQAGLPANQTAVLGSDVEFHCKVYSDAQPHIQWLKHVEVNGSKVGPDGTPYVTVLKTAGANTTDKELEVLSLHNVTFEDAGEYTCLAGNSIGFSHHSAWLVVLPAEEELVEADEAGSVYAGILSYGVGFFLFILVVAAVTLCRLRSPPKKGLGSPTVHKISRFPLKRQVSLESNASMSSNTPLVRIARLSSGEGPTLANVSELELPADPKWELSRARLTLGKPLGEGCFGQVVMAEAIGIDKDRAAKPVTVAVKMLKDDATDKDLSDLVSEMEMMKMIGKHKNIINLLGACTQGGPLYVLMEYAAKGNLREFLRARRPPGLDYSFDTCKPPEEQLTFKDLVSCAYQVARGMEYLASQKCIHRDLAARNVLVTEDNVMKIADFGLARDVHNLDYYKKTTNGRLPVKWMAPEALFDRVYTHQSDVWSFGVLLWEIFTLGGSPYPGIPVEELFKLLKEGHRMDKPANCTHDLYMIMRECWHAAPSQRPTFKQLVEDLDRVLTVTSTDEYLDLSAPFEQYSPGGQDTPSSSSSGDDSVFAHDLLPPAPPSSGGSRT
Put plainly: Kinase binding assay (Kd), FGFR3 (V555M). On the procedure:
as §1, §2, §3, §4

The target in assay [4] is T4, FGFR3 (Homo sapiens, UniProt P22607).
T4 construct: made in house; host or cells: E. coli host derived from BL21, infected with T7 phage
T4 sequence (P22607 23-806): as the sequence (P22607 23-806 V555M) above, with M533V counted along it
Put plainly: Kinase binding assay (Kd), FGFR3. The procedure: as §1, §2, §3, §4

Assay [5] deals with T5, FGFR2 (Homo sapiens, UniProt P21802).
T5 construct: made in house; host or cells: E. coli host derived from BL21, infected with T7 phage
T5 sequence (P21802 22-821): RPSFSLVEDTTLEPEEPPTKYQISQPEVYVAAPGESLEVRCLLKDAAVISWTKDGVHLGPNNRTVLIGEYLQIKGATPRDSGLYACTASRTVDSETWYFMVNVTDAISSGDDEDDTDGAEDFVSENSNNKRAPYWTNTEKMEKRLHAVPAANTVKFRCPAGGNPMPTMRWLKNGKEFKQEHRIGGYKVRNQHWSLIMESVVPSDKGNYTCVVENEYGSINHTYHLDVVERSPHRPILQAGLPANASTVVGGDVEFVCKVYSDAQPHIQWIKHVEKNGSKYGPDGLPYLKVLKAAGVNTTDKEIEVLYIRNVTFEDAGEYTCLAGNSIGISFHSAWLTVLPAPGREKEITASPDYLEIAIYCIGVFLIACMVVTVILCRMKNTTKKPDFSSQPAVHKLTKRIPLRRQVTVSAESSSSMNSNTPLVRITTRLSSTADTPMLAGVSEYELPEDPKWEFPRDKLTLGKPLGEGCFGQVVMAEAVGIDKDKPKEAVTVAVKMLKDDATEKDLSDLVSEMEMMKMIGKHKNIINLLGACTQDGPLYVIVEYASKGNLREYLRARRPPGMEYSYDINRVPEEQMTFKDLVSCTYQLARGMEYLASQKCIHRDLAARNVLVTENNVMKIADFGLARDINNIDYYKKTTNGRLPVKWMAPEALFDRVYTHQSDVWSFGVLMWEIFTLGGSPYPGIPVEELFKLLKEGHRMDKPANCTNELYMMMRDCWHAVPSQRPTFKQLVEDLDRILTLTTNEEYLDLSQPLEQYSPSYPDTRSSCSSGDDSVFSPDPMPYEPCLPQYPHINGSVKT
Put plainly: Kinase binding assay (Kd), FGFR2. On the procedure:
as §1, §2, §3, §4

This is an account of results in patent US20230115945A1, “AMINOPYRIMIDINE COMPOUNDS” (TYRA BIOSCIENCES, INC., priority 2019, published 2023).

T1 sequence (P11362 22-822): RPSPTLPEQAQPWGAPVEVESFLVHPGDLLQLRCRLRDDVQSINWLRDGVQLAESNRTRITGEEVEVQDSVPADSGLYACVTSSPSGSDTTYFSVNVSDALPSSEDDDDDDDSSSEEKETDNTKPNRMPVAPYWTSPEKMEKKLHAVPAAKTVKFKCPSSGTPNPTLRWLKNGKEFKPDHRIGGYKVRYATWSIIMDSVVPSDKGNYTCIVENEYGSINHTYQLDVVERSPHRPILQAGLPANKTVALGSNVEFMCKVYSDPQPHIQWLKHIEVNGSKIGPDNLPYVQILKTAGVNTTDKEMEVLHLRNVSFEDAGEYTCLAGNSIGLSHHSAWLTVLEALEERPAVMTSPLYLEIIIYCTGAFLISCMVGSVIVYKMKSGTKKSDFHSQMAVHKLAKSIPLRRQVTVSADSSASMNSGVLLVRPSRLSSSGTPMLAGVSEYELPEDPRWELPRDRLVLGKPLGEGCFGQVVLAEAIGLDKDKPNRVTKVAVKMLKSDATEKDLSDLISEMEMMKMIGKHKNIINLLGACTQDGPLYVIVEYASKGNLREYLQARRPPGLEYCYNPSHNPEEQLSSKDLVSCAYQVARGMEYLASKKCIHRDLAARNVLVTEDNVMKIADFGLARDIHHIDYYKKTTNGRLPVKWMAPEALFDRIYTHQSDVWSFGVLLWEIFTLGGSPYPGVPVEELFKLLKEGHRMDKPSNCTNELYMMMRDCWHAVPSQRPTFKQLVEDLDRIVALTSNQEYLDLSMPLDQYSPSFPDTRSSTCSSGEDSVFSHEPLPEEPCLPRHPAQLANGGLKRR
T2 sequence (P22455 22-802): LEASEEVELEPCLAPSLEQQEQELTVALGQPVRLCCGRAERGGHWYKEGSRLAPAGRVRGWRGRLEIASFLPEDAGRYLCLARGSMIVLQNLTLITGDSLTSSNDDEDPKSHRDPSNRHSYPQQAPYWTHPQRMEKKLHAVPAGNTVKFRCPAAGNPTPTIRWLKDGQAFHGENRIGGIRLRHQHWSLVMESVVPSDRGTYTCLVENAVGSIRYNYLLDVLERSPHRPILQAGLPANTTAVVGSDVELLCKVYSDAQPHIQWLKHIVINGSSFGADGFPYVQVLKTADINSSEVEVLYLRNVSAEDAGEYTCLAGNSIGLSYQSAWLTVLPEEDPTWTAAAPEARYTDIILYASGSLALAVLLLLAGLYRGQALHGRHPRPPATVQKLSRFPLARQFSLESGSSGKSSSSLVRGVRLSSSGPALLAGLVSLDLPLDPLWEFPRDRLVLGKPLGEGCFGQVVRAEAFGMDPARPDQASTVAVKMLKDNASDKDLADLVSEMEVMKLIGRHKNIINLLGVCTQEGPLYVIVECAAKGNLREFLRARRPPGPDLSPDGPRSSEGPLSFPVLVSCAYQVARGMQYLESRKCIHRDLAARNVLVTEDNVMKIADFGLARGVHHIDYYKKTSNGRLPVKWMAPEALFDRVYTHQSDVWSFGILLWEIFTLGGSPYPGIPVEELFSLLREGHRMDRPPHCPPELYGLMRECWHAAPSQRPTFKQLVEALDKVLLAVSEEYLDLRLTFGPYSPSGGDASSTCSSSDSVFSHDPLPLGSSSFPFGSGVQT

Turning to `COc1cc(N=S2(=O)CCN(C(C)C)CC2)ccc1Nc1ncc(Cl)c(-c2c[nH]c3ccccc23)n1` [Example 40, 5-Chloro-4-(1H-indol-3-yl)-N-[4-[(4-isopropyl-1-oxo-1,4-thiazinan-1-ylidene)amino]-2-methoxy-phenyl]pyrimidin-2-amine], the Kd in assay [1] stood at 80 nM; in assay [2], 0.1 µM; in assay [3], 10 nM; in assay [4], 110 nM; in assay [5] it was 860 nM.
On the same counts, the results for `COc1cc(S(C)(=N)=O)ccc1Nc1ncc(Cl)c(-n2ccc3ccccc32)n1` (stereo not shown) [Example 41, 5-chloro-4-indol-1-yl-N-[2-methoxy-4-(methyl-sulfonimidoyl)phenyl]pyrimidin-2-amine] are 9000 nM, 6.3 µM, 180 nM, 6000 nM and 18000 nM.
On the same counts, the results for `COc1cc(S(C)(=N)=O)ccc1Nc1ncc(C)c(-n2ccc3ccccc32)n1` (stereo not shown) [Example 42, 4-Indol-1-yl-N-[2-methoxy-4-(methylsulfonimidoyl)phenyl]-5-methyl-pyrimidin-2-amine] are 3000 nM, 4.2 µM, 110 nM, 1800 nM and 3300 nM.
On the same counts, the results for `COc1cc(S(C)(=N)=O)ccc1Nc1nccc(-n2ccc3ccccc32)n1` (stereo not shown) [Example 43, 4-Indol-1-yl-N-[2-methoxy-4-(methylsulfonimidoyl)phenyl]-pyrimidin-2-amine] are 5000 nM, 7.5 µM, 680 nM, 3400 nM and 4000 nM.
For the compound `COc1cc(N2CCS(=N)(=O)CC2)ccc1Nc1ncc(Cl)c(-n2ccc3ccccc32)n1` [Example 44, 5-Chloro-N-[4-(1-imino-1-oxo-1,4-thiazinan-4-yl)-2-methoxy-phenyl]-4-indol-1-yl-pyrimidin-2-amine], the Kd in assay [1] was found to be 2200 nM; in assay [2] it was 4.1 µM; in assay [3], 42 nM; in assay [4], 2800 nM; in assay [5] it was 15000 nM.
On the same counts, the results for `COc1cc(N2CCS(=N)(=O)CC2)ccc1Nc1nccc(-n2ccc3ccccc32)n1` [Example 45, N-[4-(1-Imino-1-oxo-1,4-thiazinan-4-yl)-2-methoxy-phenyl]-4-indol-1-yl-pyrimidin-2-amine] are 7800 nM, 5.1 µM, 1100 nM, 4900 nM and 9000 nM.
For `COc1cc(N2CCS(=N)(=O)CC2)ccc1Nc1ncc(C)c(-n2ccc3ccccc32)n1` [Example 46, N-[4-(1-imino-1-oxo-1,4-thiazinan-4-yl)-2-methoxy-phenyl]-4-indol-1-yl-5-methyl-pyrimidin-2-amine], in that order: 2700 nM, 5.6 µM, 160 nM, 2200 nM and 4400 nM.
Consider `N=S(=O)(c1ccc(Nc2ncc(Cl)c(-c3c[nH]c4ccccc34)n2)cc1)C1CC1` (stereo not shown) [Example 47, 5-Chloro-N-[4-(cyclopropyl-sulfonimidoyl)phenyl]-4-(1H-indol-3-yl)pyrimidin-2-amine], for which the Kd came out at 18 nM in assay [1]; 0.19 µM in assay [2]; 4 nM in assay [3]; 37 nM in assay [4]; 16 nM in assay [5].
On the same counts, the results for `Cc1cnc(Nc2ccc(S(C)(=N)=O)cc2)nc1-c1c[nH]c2ccccc12` (stereo not shown) [Example 48, 4-(1H-Indol-3-yl)-5-methyl-N-[4-(methylsulfonimidoyl)-phenyl]pyrimidin-2-amine] are 7 nM, 0.16 µM, 2 nM, 16 nM and 6 nM.
Turning to `Cn1cc(-c2nc(Nc3ccc(S(=N)(=O)C4CC4)cc3)ncc2Cl)c2ccccc21` (stereo not shown) [Example 50, 5-Chloro-N-[4-(cyclopropyl-sulfonimidoyl)phenyl]-4-(1-methylindol-3-yl)pyrimidin-2-amine], the Kd was found to be 330 nM in assay [1]; 3 µM in assay [2]; 26 nM in assay [3]; 190 nM in assay [4]; 170 nM in assay [5].
On the same counts, the results for `N=S1(=O)CCN(c2ccc(Nc3ncc(F)c(-c4c[nH]c5ccccc45)n3)cc2)CC1` [Example 58, 5-Fluoro-N-[4-(1-imino-1-oxo-1,4-thiazinan-4-yl)phenyl]-4-(1H-indol-3-yl)pyrimidin-2-amine] are 11 nM, 0.12 µM, 7 nM, 15 nM and 19 nM.
In the case of `CS(C)(=O)=Nc1ccc(Nc2ncc(F)c(-c3c[nH]c4ccccc34)n2)cc1` [Example 59, N-[4-[[Dimethyl(oxo)-λ^6-sulfanylidene]amino]phenyl]-5-fluoro-4-(1H-indol-3-yl)pyrimidin-2-amine], the Kd was 18 nM in assay [1]; 0.13 µM in assay [2]; 11 nM in assay [3]; 22 nM in assay [4]; 50 nM in assay [5].
On the same counts, the results for `C=CC(=O)Nc1ccc2c(c1)c(C)cn2-c1nc(Nc2ccc(N=S(C)(C)=O)cc2OCC)ncc1Cl` [Example 65, N-[1-[5-Chloro-2-[4-[[dimethyl(oxo)-λ^6-sulfanylidene]amino]-2-ethoxy-anilino]pyrimidin-4-yl]-3-methyl-indol-5-yl]prop-2-enamide] are 4000 nM, 1.3 µM, 970 nM, 1700 nM and 7900 nM.
For `CCC(=O)Nc1ccc2c(ccn2-c2nc(Nc3ccc(N=S(C)(C)=O)cc3)ncc2Cl)c1` [Example 68, N-[1-[5-Chloro-2-[4-[[dimethyl(oxo)-λ^6-sulfanylidene]amino]anilino]-pyrimidin-4-yl]indol-5-yl]propanamide], in that order: 630 nM, 2.4 µM, 24 nM, 320 nM and 340 nM.
On the same counts, the results for `C=CC(=O)Nc1ccc2c(ccn2-c2nc(Nc3ccc(S(C)(=N)=O)cc3OC)ncc2Cl)c1` (stereo not shown) [Example 71, N-[1-[5-chloro-2-[2-methoxy-4-(methylsulfonimidoyl)-anilino]pyrimidin-4-yl]indol-5-yl]prop-2-enamide] are 6000 nM, 3.4 µM, 140 nM, 1500 nM and 3000 nM.
In the case of `C=CC(=O)Nc1ccc2c(ccn2-c2nc(Nc3ccc(N4CCS(=N)(=O)CC4)cc3)ncc2Cl)c1` [Example 72], the Kd in assay [1] was 77 nM; in assay [2], 0.24 µM; in assay [3], 5.7 nM; in assay [4], 17 nM; in assay [5], 100 nM.
On the same counts, the results for `CCC(=O)Nc1ccc2c(ccn2-c2nc(Nc3ccc(N4CCS(=N)(=O)CC4)cc3)ncc2Cl)c1` [Example 73, N-[1-[5-chloro-2-[4-(1-imino-1-oxo-1,4-thiazinan-4-yl)anilino]pyrimidin-4-yl]indol-5-yl]propanamide] are 290 nM, 1.3 µM, 18 nM, 180 nM and 380 nM.
For `C=CC(=O)Nc1ccc2c(ccn2-c2nc(Nc3ccc(S(C)(=N)=O)cc3OC)ncc2C)c1` (stereo not shown) [Example 75, N-[1-[2-[2-methoxy-4-(methylsulfonimidoyl)anilino]-5-methyl-pyrimidin-4-yl]indol-5-yl]prop-2-enamide], in that order: 5000 nM, 0.5 µM, 380 nM, 1100 nM and 1600 nM.
As for `C=CC(=O)Nc1cccc2c1ccn2-c1nc(Nc2ccc(N=S(C)(C)=O)cc2)ncc1Cl` [Example 76, N-[1-[5-Chloro-2-[4-[[dimethyl(oxo)-λ^6-sulfanylidene]amino]anilino]-pyrimidin-4-yl]indol-4-yl]prop-2-enamide], the Kd in assay [1] came out at 160 nM; in assay [2], 3 µM; in assay [3] it was 12 nM; in assay [4] it was 160 nM; in assay [5] it was 370 nM.
`CCC(=O)Nc1cccc2c1ccn2-c1nc(Nc2ccc(N=S(C)(C)=O)cc2)ncc1Cl` [Example 77, N-[1-[5-Chloro-2-[4-[[dimethyl(oxo)-λ^6-sulfanylidene]amino]anilino]-pyrimidin-4-yl]indol-4-yl]propanamide]: the Kd in assay [1] is 170 nM; in assay [2], 2.6 µM; in assay [3] it was 7 nM; in assay [4], 130 nM; in assay [5], 260 nM.
